# Where a name gives a salt, the structure may show the parent alone.
# Key:
# [1] = Ocular bioavailability following intravenous administration (Example 2); format: in vivo, New Zealand White rabbit; details: rabbit
# Source text: This study was designed to model the ocular bioavailability of mecamylamine when administered systemically. Rabbit eyes are the preferred model for in vivo modeling of ocular drugs, however, the rabbit is not the subject of choice for modeling oral bioavailability. However, systemic administration does emulate orally administered mecamylamine to a reasonable approximation since mecamylamine has rapid absorption and high oral bioavailability. Therefore, intravenous injection was used to model ocular bioavailability of mecamylamine administered systemically, in order to determine the deposition of mecamylamine to the plasma, vitreous and posterior tissues (retina/choroid) of the eye from the blood.
# The study comprised 2 groups (each N=6, 12 rabbits total) of male NZW (New Zealand White) rabbits weighing approximately 2.5-3 kg and obtained from Kralek Farms (Turlock, Calif.). Mecamylamine solution, prepared as described in Example 1, at a dose of 15 mg/kg was delivered via i.v. infusion as either a short infusion (1 hr) or slow infusion (6 hr) in rabbits sedated by ketamine/xylazine, with the slow infusion intended to model controlled systemic release of the mecamylamine.
# For both groups, samples of the vitreous(≧0.1 ml) and plasma were withdrawn at 6 time points: pre-dose, 30 min, 1, 2, 4, and 6 hr. At 6 hours, all animals were sacrificed and vitreous and retinal tissues were collected. The total amount of mecamylamine administered during each infusion was the same, based on the weight of the individual rabbit.
# The concentrations of mecamylamine present in the various samples were analyzed as described in Example 6, below.
# [2] = test system: eyes of New Zealand White rabbits; assay: Pupil diameter, pupillary response and mortality observations after topical ocular instillation in rabbits (Example 10); details: rabbit, in vivo
# Experimental: The objective of this study was to evaluate the ocular pharmacokinetics of a 2% Mecamylamine in a GELRITE solution up to 6 hours following topical instillation into the eyes of New Zealand White rabbits. Nine New Zealand White female rabbits of minimum age of 9 weeks and weight 2-3 kg were obtained from The Rabbit Source (Ramona, Calif.) were used in the study.
# On day 1, 2 drops of 50 μL of mecamylamine or vehicle were administered topically into the appropriate eye(s) of each animal as described in Table 13. The time of each dose administration was recorded.
# endothelial nAChRs = details: in vitro; endothelial cells; cited from earlier work
# in vivo = details: rabbit, in vivo
# Experimental: As used herein, the term “topically administered to a rabbit eye,” and cognates thereof, refers to the administration of a particular mecamylamine formulation, including formulations of pharmaceutically acceptable salts of mecamylamine, by applying 100 μL of the mecamylamine formulation to the cornea of each eye (2 drops of 50 μL each), wherein at the time of application the bottom eyelid is separated from the surface of the eye to make a pocket to ensure the entire dose is retained in contact with the eye. When the concentration of mecamylamine in plasma and in the retinal/choroidal tissue is to be measured in connection with the calculation of the ratio of the mecamylamine concentration in the retina/choroid versus the concentration of mecamylamine in plasma, the concentration of each is determined 1 hour after application of the formulation. The amount of mecamylamine present in plasma and the retina/choroid is determined by LC/MS/MS using internal standards of dextromethorphan and diphenhydramine and a standard of known concentration of mecamylamine. An exemplary method of administration of the topical formulation of mecamylamine is provided in Example 5. An exemplary LC/MS/MS method for determining the ratios described herein is given in detail in Example 6. When the mean maximum concentration of mecamylamine in plasma is to be determined, the concentration is again determined as described above and in Example 6. The term “mean maximum concentration of mecamylamine,” and its cognates, as used herein refers to the mean maximum concentration of mecamylamine measured in plasma when monitored over a 6 hour time period after administration of the formulation. When the mean total concentration of mecamylamine in plasma is to be determined, the concentration is again determined as described above and in Example 6. The term “total concentration of mecamylamine in plasma measured as the area under the curve,” (AUC) and cognates thereof, refers to summation of the areas under plot of the drug plasma versus time using a simple trapezoidal method with drug plasma time points taken to include 1, 3 and 6 hours after topical administration. Determination of AUC for corneal tissue, retinal/choroid tissue and aqueous humor is determined similarly. When the concentration of mecamylamine in plasma and in the corneal tissue is to be measured in connection with the calculation of the ratio of the mecamylamine concentration in the cornea (or aqueous humor) versus the concentration of mecamylamine in plasma, the concentration of each is determined 1 hour after application of 50 μl of the formulation. The amount of mecamylamine present in plasma and the cornea (or aqueous humor) is determined by LC/MS/MS using internal standards of dextromethorphan and diphenhydramine and a standard of known concentration of mecamylamine. An exemplary method of administration of the topical formulation of mecamylamine is provided in Example 5. An exemplary LC/MS/MS method for determining the ratios described herein is given in detail in Example 6.
# A single dose of a polymer-free solution, gellan gum formulation and hypromellose formulation containing 3% mecamylamine hydrochloride, was instilled in the eyes of rabbits (Dutch-belted male rabbits (Convance, Denver, Pa.) minimum age 2 months and with weights of 1.6 to 1.8 kg). Two animals were euthanized 30 minutes, 1 hour or 3 hours after dosing.
# Sample of blood and ocular tissue (obtained as described in previous examples) were analyzed for mecamylamine concentration using an LC MS/MS method up to 3 hours after dosing.
# The area-under-the-curve (AUC) was calculated using a trapezoidal rule on a population pharmacokinetic basis (see Table 9).
molecule,measurement,setting,value
CNC1(C)C2CCC(C2)C1(C)C (stereo not shown) [mecamylamine hydrochloride],mean maximum concentration of mecamylamine in plasma,[1]; long i.v. infusion (FIG. 2),greater than 500 ng/mL
same,mean maximum concentration of mecamylamine in plasma,[1]; short i.v. administration (FIG. 1),> 1500 ng/mL
same,pupil diameter and pupil diameter response to light (mydriasis),[2],did not result in significant changes in pupil diameter or pupil diameter response to light
CN1CCCC1c1cccnc1 (stereo not shown) [nicotine],concentrations at which the maximal effect of nicotine occurs,endothelial nAChRs,10 to 100 nM
HPMC,Aqueous Humor AUC,in vivo,"7,355 ng/mL*hr"
same,Cornea AUC,in vivo,114000 ng·h/g
same,Plasma AUC,in vivo,61 ng·h/mL
same,Ratio Aqu H:plasma (AUC),in vivo,120
same,Ratio Cornea:Plasma (AUC),in vivo,"1,868:1"
same,Ratio Retina/Choroid:Plasma (AUC),in vivo,291:1
same,Retina/Choroid AUC,in vivo,17800 ng·h/g
same,"Mecamylamine AUC, Anterior sclera",in vivo; topical or ocular,32790 ng·h/g
same,"Mecamylamine AUC, Aqueous humor",in vivo; topical or ocular,7355 ng·h/mL
same,"Mecamylamine AUC, Conjunctiva",in vivo; topical or ocular,114398 ng·h/g
same,"Mecamylamine AUC, Cornea",in vivo; topical or ocular,113938 ng·h/g
same,"Mecamylamine AUC, Extraocular muscle",in vivo; topical or ocular,31236 ng·h/g
same,"Mecamylamine AUC, Iris-ciliary body",in vivo; topical or ocular,114813 ng·h/g
same,"Mecamylamine AUC, Lens",in vivo; topical or ocular,1064 ng·h/g
same,"Mecamylamine AUC, Optic Nerve",in vivo; topical or ocular,11515 ng·h/g
same,"Mecamylamine AUC, Posterior sclera",in vivo; topical or ocular,23638 ng·h/g
same,"Mecamylamine AUC, Retina/Choroid",in vivo; topical or ocular,17804 ng·h/g
same,"Mecamylamine AUC, Vitreous humor",in vivo; topical or ocular,335 ng·h/mL

# — patent US20070167526A1, “Topical mecamylamine formulations for ocular administration and uses thereof” (priority 2005, published 2007)
